# Laboratory results published in publication PMC6572376, “N1-Propargylguanosine Modified mRNA Cap Analogs: Synthesis, Reactivity, and Applications to the Study of Cap-Binding Proteins” (Molecules, 2019).
# Target: T1, hDcpS (Homo sapiens, UniProt Q96C86)
# T1 construct: made in house
# T1 sequence (Q96C86 1-337): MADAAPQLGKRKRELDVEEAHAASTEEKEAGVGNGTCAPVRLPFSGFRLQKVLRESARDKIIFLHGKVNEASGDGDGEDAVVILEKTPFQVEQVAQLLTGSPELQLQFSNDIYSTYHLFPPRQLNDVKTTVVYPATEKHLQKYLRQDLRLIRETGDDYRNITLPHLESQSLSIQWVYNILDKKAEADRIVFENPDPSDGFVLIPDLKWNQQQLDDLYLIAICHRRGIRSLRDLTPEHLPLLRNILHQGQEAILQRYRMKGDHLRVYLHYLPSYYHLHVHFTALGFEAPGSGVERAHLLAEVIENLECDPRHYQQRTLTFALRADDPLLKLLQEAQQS
# Test: hDcpS cleavage of fluorescent probes monitored by emission spectroscopy
# Type: biochemical
# Details: 30 nM hDcpS; probe 30 µM / 100 nM (legend, methods)
# Procedure: Fluorescently labeled cap analogs that serve as DcpS substrates can be considered as activity probes. We performed an enzymatic cleavage test with 30 nM hDcpS and 30 µM probe to evaluate whether fluorescently labeled derivatives of cap analog 1 (probes 6–9) can be used to monitor enzymatic activity via changes in fluorescence emission. […] For the Py-labeled probe 9, the fluorescence intensity at the emission maximum increased by 50% after complete DcpS cleavage (Figure 4c and Figure S3). Nevertheless, certain previously developed probes provided higher sensitivity than the one formulated here.
# Human DcpS was expressed and purified as described previously. Enzyme was stored at −80 °C at 10 µM concentration (monomer). Enzyme hDcpS was preincubated at 30 °C for 15 min before usage. […] Reaction progress was monitored by recording emission spectra, upon excitation at the wavelength characteristic for a fluorophore studied, using Cary Eclipse (Agilent Technologies, Santa Clara, CA, USA) equipped with a xenon lamp in a quartz cuvette (10 mm × 4 mm).
# Figure 4 The influence of complete cleavage by hDcpS (30 nM) on the fluorescence properties of probes 6–9 (100 nM). Emission spectra before (0 min) and after (60 min) decapping scavenger (DcpS) cleavage for compounds 6 (a) and 9 (b); (c) The ratios of fluorescence intensity after and before cleavage (I/I0) for all studied probes.
smiles,measurement,value
"C[n+]1cn([C@@H]2O[C@H](COP(=O)(O)OP(=O)([O-])OP(=O)(O)OC[C@H]3O[C@@H](n4cnc5c(=O)n(Cc6cn(CCOCCOCCNC(=O)Cc7ccc8ccc9cccc%10ccc7c8c9%10)nn6)c(N)nc54)[C@H](O)[C@@H]3O)[C@@H](O)[C@H]2O)c2nc(N)nc(O)c21 [Compound 9, m^7Gp3G-N1-Py]",Increase of fluorescence intensity at the emission maximum after complete DcpS cleavage,50%
